This is an account of results in US10053455B2, “Diazaspiroalkaneone-substituted oxazole derivatives as spleen tyrosine kinase inhibitors” (AB SCIENCE, priority 2014, dated 2018).

For one data set, the target named is SYK kinase (Homo sapiens (Human), UniProt P43405). Briefly: In vitro SYK inhibition assay (HTRF kinase assay). The class given is biochemical. The method, then: SYK kinase was purified as a full length protein in a baculovirus system near homogeneity. All kinase assays were performed with the Kinase TK (tyrosine kinase) HTRF (Homogeneous Time Resolved Fluorescence) assay developed by Cisbio international. […] Reactions were initiated upon introduction of the enzyme and terminated with the addition of one reaction volume (25 μl) of HTRF detection buffer. Plates were incubated for one hour at room temperature and the time resolved Fluorescence resonance energy transfer signal was measured in a Pherastar FS microplate reader (BMG Labtech).
(§1) Most of the kinases tested in this study were cloned, expressed and purified in the facilities of the inventors. They were expressed either as N-terminus hexahistidine-, hexahistidine-asparagine- or GST-tagged enzymes in a baculovirus or in a Colibacille expression system. Remaining enzymes (JAKs) were purchased from Millipore or Proqinase. For each enzyme, steady state kinetic parameters were determined and validated with known inhibitors.
(§2) The analysis of the effect of compounds on kinase activity was assessed with the HTRF® KinEASE assay (Cisbio International), an immuno-assay based on the quantification of the level of phosphorylation of a biotinylated peptide substrate using anti-phospho-specific antibody labeled with Europium (Eu^3+) cryptate. This assay comprises two steps: —an enzymatic step, during which the peptide substrate, the kinase, ATP, Mg^2+ and/or Mn^2+ are incubated with varying concentration of drug (from 0 to 10 μM); —a detection step, at the end of the reaction (stopped by addition of EDTA which chelates Mg^2+), the antibody anti-phospho peptide-Eu^3+ (emission 620 nm) and streptavidin XL-665 (emission 665 nm) are added to the reaction mix. After incubation, the obtained signal is proportional to the concentration of phosphorylated peptide in the sample. All measurements were performed on a BMG Labtech Pherastar FS apparatus. Results are expressed in delta fluorescence (DF) unit defined as follow DF %=[(ratio−ratio blank)/(ratio blank)]*100, where ratio=(665 nm/620 nm)*10^4. Each experiment was performed in duplicate and repeated two or three times.
For orientation: TR-FRET usually uses a lanthanide donor and a delayed reading to cut background.

The subject of data set [1] is murine model of asthma. Briefly: Mouse model of asthma: airway responsiveness (FlexiVent). The format is in vivo, Balb/c male mice. The conditions noted are these: ovalbumin-sensitized mice, PO twice daily. The method, then:
(§3) Balb/c male mice, 8 weeks old, were purchased from Janvier (Le Genest-Saint-Isle; FRANCE) and bred in the animal facility for 4 weeks. Drugs were dissolved in drinking solvent (80% water; 10% Tween 80 and 10% isopropanediol). It was aliquoted and stored at −20° C. Each mouse received drugs twice a day. The weight of animals was calculated before and after treatment.
(§4) Mice, 9 weeks of age, were sensitized with 50 μg of ovalbumin (Sigma-Aldrich, Germany) adsorbed to 2 mg Al(OH)3 (Prolabo, France) and diluted in physiological saline (0.9% NaCl). Ovalbumin was injected intraperitoneally on days 1 and 7. Sensitization was followed by intranasal challenges with 10 μg of ovalbumin diluted in 0.9% NaCl, each day from day 18 to day 21. On days 17 to 21, animals treated with drugs received 100 μl of a solution at 15 mg/ml, at 7.5 mg/ml or at 3.75 mg/ml administered per os twice a day during 5 days. These treatments corresponded to concentration of 60 mg/mouse kg, 30 mg/mouse kg and 15 mg/mouse kg respectively.
The airway responsiveness was measured using the invasiveness FlexiVent® (SCIREQ) technique. […] The baseline values were measured after saline solution nebulization and airway hyperresponsiveness evaluated after nebulization of a 0.26M metacholine solution (50 mg/ml).

Data set [2] relates to rat neonatal cardiac myocytes. Briefly: Intracellular ROS in rat cardiomyocytes (CM-H2DCFDA). The format is cell-based. The settings on record: 10 μM, 8 hours. The method, then:
2×10^3 human cardiomyocytes (Promocell C-12810) or 4×10^4 rat neonatal cardiac myocytes (R-CM-561 Lonza) were seeded per well of a 96-well plate (black wall for fluorimetry usage (655090 Greiner Bio one)) 24 hours before drug treatment. Treatment was initiated by addition of a drug solution for a 10 μM final concentration. Doxorubicin was used at 5 μM as positive control for the induction of ROS. After 8 hours treatment with drugs, cells were loaded with 10 μM of CM-H2DCFDA (C6827 Invitrogen) for 1 hour, followed by 2 washes in PBS. CM-H2DCFDA is a membrane permeable reagent that can be enzymatically converted to dichlorodihydrofluorescein (DCF) in the presence of ROS. Fluorescent DCF was detected using a fluorescence spectrophotometer (BMG Labtech) with excitation of 485 nm and emission of 560 nm. The results were expressed as a relative percent of DCF-fluorescence in control cells.
Monitoring drug-induced increase in the production of reactive oxygen species (ROS) in cardiomyocyte may be important to predict the cardiotoxic side effects of a drug (Table 11). The production of ROS in human and rat cardiomyocytes was studied following 8 hours drug treatment at concentration of 10 μM. The results were expressed as a percent relative to the production of ROS induced by the cardiotoxic chemotherapeutic agent doxorubicin (100%).

A further data set deals with Src (Homo sapiens (Human), UniProt P12931). Briefly: HTRF kinase assay, Src. The class given is biochemical. The settings on record: enzymatic determination. The method, then: as §1
as §2, with “After incubation, the obtained signal is proportional to the concentration of phosphorylated peptide in the sample. All measurements were performed on a BMG Labtech Pherastar FS apparatus.” left out, “Each experiment was performed in duplicate and repeated two or three times.” left out

The next data set concerns the target VEGFR1 (Homo sapiens (Human), UniProt P17948). Nature of the data set: HTRF kinase assay, VEGFR1. The format is biochemical. The settings on record: enzymatic determination. Here is the method: as §1
as §2, with “After incubation, the obtained signal is proportional to the concentration of phosphorylated peptide in the sample. All measurements were performed on a BMG Labtech Pherastar FS apparatus.” left out, “Each experiment was performed in duplicate and repeated two or three times.” left out

The subject of data set [3] is murine model of asthma. Nature of the data set: Mouse model of asthma: eosinophils recruitment in bronchio-alveolar lavage. The format is in vivo, Balb/c male mice. The method, then: as §3, §4
Bronchio-alveolar lavage (BAL) was performed after the animals were disconnected from the FlexiVent®. The airways were lavaged with 5 ml (10 times 0.5 ml) ice cold 0.9% NaCl 2.6 mM EDTA. BAL samples were centrifuged at 1200 rpm for 5 minutes at 4° C. Pellet cells were collected and erythrocytes lysed by adding 1.5 ml deionized water for 30 seconds. After neutralization with 0.5 ml of 0.6M KCl, cells were centrifuged at 1200 rpm for 5 minutes at 4° C. BAL samples were used to count the total cell number and to perform cytospins (shandon, Pontoise). Cell types were identified by morphological criteria after Hemacolor (Merck) staining.
Mice were sensitized and challenged with ovalbumin as described in protocol assays above. The mice were distributed in groups of 5-6 animals that were treated twice daily with 7.5 to 60 mg/Kg of anti-SYK/KIT drugs (PO).

Like-named read-outs stand apart in the source and are kept apart here. Some results are limits rather than exact numbers.

Sequence of Src (P12931 whole entry, looked up, species assumed): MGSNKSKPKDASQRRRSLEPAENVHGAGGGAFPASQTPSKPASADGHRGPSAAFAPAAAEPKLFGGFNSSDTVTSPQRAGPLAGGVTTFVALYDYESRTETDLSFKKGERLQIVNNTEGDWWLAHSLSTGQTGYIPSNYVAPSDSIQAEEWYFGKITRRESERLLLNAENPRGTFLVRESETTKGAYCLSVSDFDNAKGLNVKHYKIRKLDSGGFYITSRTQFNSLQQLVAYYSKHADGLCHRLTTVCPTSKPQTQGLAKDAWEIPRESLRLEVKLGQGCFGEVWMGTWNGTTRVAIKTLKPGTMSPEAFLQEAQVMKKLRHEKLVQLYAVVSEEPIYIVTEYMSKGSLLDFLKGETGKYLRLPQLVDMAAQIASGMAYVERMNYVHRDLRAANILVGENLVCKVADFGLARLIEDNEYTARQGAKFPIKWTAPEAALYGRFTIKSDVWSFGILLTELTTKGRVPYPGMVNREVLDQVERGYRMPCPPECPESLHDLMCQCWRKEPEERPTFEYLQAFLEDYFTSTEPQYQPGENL
Sequence of VEGFR1 (P17948 27-1338, species assumed): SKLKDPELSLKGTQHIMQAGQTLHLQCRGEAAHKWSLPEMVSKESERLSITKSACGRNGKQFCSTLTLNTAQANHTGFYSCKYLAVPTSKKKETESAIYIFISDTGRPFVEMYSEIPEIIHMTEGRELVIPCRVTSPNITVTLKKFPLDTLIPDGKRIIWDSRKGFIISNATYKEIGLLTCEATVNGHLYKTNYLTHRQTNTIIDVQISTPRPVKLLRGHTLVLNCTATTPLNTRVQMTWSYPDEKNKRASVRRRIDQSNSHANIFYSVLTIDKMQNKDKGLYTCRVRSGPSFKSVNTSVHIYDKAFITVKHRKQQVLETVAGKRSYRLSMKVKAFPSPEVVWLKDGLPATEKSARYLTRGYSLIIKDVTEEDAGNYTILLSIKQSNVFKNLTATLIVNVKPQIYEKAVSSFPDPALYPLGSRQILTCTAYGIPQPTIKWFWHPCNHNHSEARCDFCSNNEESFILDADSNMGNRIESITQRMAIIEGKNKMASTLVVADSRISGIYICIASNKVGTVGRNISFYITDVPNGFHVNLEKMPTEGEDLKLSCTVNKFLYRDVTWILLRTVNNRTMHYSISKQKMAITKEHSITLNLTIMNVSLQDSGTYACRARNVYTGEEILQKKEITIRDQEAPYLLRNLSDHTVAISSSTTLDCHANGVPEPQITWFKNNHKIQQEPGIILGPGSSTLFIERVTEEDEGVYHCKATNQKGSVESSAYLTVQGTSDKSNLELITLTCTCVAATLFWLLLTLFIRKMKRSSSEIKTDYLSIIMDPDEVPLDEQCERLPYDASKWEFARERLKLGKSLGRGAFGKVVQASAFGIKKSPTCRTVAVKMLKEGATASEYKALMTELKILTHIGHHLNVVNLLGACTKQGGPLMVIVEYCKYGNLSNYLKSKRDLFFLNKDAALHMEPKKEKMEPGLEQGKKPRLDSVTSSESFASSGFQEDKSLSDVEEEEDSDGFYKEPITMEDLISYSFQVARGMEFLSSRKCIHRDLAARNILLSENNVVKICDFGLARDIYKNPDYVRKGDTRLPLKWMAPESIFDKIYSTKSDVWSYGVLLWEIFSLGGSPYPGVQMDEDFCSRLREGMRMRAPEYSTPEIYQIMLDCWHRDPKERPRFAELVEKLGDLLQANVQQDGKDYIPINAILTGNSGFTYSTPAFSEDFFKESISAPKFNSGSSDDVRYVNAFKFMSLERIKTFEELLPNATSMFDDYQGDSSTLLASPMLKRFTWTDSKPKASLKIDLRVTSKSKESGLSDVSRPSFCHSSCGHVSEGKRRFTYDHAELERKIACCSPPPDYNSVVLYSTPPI

In general, IC50 refers to the midpoint of a concentration-inhibition curve. Turning to `Cc1ccnc(Nc2cccc(-c3cnc(N4CCNC(=O)C45CC5)o3)c2)n1` [Compound 001, 4-{5-[3-(4-Methyl-pyrimidin-2-ylamino)-phenyl]-oxazol-2-yl}-4,7-diaza-spiro[2.5]octan-8-one], the IC50 on SYK kinase (enzymatic determination, read-out: Kinase activity profile IC50 Syk) was 41 nM; on SYK kinase (read-out: Syk (IC50)), under 500 nM; against Src, 2600 nM; on VEGFR1, 7500 nM. For the same compound, the bronchial hyper-responsiveness entry in the data set with murine model of asthma [1] is listed as “reduced bronchial hyper-responsiveness in a dose-dependent manner”. Besides, the “ROS production, activity relative to doxorubicine (100%), Rat-CM” value in data set [2] worked out at 0%. Moreover, the “Percentage of Eosinophils recruitment in Bronchio-alveolar lavage (BAL)” value in the data set on murine model of asthma [3] (Experiment #2, 2 × 15 mg/kg/day PO) is on record as −14%; in the data set with murine model of asthma [3] (Experiment #2, 2 × 30 mg/kg/day PO) it was −47%.
